This is an account of results in patent US10799475B2, “Substituted phenyl aziridine precursor analogs for inhibiting androgen-independent prostate cancer cell growth” (Northwestern University, priority 2007, dated 2020).

The target in assay [1] is T1, AR (Homo sapiens, UniProt P10275, T878A).
T1 construct: epithelial cells expressing endogenous AR, LNCaP prostate cells were studied; endogenous in cells; host or cells: LNCaP
T1 sequence (P10275 1-920 T878A): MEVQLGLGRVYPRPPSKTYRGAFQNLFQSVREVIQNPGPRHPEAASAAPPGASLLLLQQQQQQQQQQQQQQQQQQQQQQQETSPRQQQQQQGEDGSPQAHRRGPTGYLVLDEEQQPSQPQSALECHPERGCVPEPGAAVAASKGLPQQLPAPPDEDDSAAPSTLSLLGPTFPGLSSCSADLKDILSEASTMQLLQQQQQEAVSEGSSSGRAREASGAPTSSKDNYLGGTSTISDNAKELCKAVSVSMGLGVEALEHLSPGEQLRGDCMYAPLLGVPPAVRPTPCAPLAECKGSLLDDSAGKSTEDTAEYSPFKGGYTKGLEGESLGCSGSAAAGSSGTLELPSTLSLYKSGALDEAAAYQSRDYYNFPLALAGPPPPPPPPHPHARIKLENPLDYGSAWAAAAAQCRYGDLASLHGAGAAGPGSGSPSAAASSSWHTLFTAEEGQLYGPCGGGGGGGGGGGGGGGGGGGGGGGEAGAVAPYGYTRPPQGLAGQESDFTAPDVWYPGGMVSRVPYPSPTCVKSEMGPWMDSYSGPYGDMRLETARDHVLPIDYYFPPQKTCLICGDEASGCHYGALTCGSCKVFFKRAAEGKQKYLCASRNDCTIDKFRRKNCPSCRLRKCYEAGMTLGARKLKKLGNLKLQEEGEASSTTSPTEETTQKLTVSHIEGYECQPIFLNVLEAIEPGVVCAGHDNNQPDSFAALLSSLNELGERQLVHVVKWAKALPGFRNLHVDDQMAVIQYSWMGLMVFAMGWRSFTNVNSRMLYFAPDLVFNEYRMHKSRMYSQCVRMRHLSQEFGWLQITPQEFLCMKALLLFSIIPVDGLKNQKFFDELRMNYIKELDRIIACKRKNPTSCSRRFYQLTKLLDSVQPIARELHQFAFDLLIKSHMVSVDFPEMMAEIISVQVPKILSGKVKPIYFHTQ
The assay is classed as cell-based. The following applies: LNCaP cells, CpdA 2×10^−6 M, 24 hours, basal and DHT 10^−7 M.

In assay [2] the test system is LNCaP cells. The assay is classed as cell-based, human. As to conditions: 5 μM CpdA, 1-12 days.
The subject of assay [3] is DU145 cells. The assay is classed as cell-based, human.
In assay [4] the test system is PWR-1E cells. In kind it is cell-based. As to conditions: tested range of concentrations.
Assay [5] concerns DU145 and PC3 cells. Put plainly: Apoptosis by PARP cleavage, Western blotting. In kind it is cell-based, human.
For assay [6], the system named is A375 cells. The assay is classed as cell-based, human. As to conditions: CpdA 5×10^−6 M, 72 hours.
For assay [7], the system named is C8161 cells. In kind it is cell-based, human. The following applies: CpdA 5×10^−6 M, 72 hours.
Assay [8] deals with B16F10 cells. In kind it is cell-based, mouse. As to conditions: CpdA 5×10^−6 M, 72 hours.
Assay [9] has as its system LNCaP-GR cells. In kind it is cell-based, human. As to conditions: monolayer and colony-forming assay, data not shown.
Assay [10] relates to PC3 and LNCaP-GR cells. The assay is classed as cell-based, human.
Assay [11] deals with LNCaP-AR^low cells. In kind it is cell-based, human. As to conditions: CpdA 2×10^−6 M, 1-10 days.
The conditions of assay [12]: rodents, proposed concentration 12.5 mg/kg; cited from earlier work.
The target of assay [13] is T2, GR (Homo sapiens, UniProt P04150).
T2 sequence (P04150 1-777): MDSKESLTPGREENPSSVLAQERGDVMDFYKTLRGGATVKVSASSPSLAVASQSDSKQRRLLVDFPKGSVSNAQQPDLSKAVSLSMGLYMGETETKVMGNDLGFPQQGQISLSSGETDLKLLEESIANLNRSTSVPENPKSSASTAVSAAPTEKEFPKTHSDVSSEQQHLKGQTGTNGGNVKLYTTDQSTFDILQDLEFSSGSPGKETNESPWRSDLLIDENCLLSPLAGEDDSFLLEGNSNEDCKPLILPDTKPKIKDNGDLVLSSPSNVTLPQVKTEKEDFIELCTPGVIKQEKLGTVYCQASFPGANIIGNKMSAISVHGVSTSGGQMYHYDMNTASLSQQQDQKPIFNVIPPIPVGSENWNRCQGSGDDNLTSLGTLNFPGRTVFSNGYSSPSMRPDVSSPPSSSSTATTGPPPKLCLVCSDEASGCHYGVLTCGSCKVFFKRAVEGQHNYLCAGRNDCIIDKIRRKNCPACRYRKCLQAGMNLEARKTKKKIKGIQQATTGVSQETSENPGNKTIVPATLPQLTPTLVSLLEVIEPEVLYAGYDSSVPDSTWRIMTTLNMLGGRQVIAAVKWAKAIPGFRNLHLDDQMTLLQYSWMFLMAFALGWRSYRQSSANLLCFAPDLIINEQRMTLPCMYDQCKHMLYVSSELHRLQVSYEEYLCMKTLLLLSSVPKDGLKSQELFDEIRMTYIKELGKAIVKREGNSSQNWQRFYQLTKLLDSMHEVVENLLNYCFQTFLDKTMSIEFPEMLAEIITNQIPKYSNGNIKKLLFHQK
As to conditions: cited from earlier work.

In assay [14] the target is T2, GR. Put plainly: EMSA of GR-DNA binding in LNCaP-GR cells. In kind it is cell-based. Also noted: expressed in transfected cells; host or cells: LNCaP-GR (lentiviral GR); also DU145 and PC3 (endogenous GR). The following applies: CpdA 10^−5 M, 4 hours. (In general: In EMSA bound probe runs differently from free probe, usually more slowly.)

Regarding `CNCC(Cl)c1ccc(OC(C)=O)cc1.Cl` (stereo not shown) [CpdA, 2-(4-acetoxyphenyl)-2-chloro-N-methyl-ethylammonium chloride], the AR transcriptional activity result in assay [1] is “inhibited basal and DHT-induced transcriptional activity of AR”. Further, the growth inhibition entry is given as “strong growth inhibition” in assay [2]; “rather resistant” in [4]; “strongly inhibited growth” in assay [6]; “strongly inhibited growth” in assay [7]; “strongly inhibited growth” in assay [8]; “resistant” in assay [11]. In assay [3], the “growth inhibition vs vehicle-treated control” value is reported as 60-65%. Moreover, the “growth inhibition, concentration-dependent” value in assay [3] (CpdA 10^−9 M−2×10^−5 M, 72 hours) was “strongly inhibit”. The “treatment time after which apoptosis is induced (PARP cleavage)” value in assay [5] (CpdA 2×10^−6 M) lay in the range of 6 to 8 days. In addition, in [5] (CpdA then TNFα 10 ng/ml for 16 hours), the “treatment time after which cells are sensitized to TNFα-induced apoptosis” value is 2 days. Further, the “sensitivity to growth inhibition vs control cells infected with empty virus” value in assay [9] is “significantly more sensitive”. The “sensitivity to CpdA after GR blockage” value in [10] is “drastic loss of sensitivity”. Besides, the anti-inflammatory effect result in assay [12] is “strong anti-inflammatory effect”. Moreover, in assay [13], the “competition for GR binding” value is on record as “competes with glucocorticoids for GR binding”. Further, in [14], the GR-DNA binding entry is “constitutively inhibit glucocorticoid-induced GR-DNA binding”.
